The values that follow come from US20200172473A1, “DUAL MODULATORS OF FARNESOID X RECEPTOR AND SOLUBLE EPOXIDE HYDROLASE” (JOHANN WOLFGANG GOETHE-UNIVERSITÄT FRANKFURT AM MAIN, priority 2017, published 2020).

Several values for one entry are separate records, joined by “and”; a condition that tells them apart may be missing. Equal values may be shown once.

One test has as its target T1, human FXR (Homo sapiens, UniProt Q96RI1).
T1 construct: characterized in a full-length (fl) FXR reporter gene assay in HeLa cells; expressed in transfected cells; host or cells: HeLa
T1 sequence (Q96RI1 1-486): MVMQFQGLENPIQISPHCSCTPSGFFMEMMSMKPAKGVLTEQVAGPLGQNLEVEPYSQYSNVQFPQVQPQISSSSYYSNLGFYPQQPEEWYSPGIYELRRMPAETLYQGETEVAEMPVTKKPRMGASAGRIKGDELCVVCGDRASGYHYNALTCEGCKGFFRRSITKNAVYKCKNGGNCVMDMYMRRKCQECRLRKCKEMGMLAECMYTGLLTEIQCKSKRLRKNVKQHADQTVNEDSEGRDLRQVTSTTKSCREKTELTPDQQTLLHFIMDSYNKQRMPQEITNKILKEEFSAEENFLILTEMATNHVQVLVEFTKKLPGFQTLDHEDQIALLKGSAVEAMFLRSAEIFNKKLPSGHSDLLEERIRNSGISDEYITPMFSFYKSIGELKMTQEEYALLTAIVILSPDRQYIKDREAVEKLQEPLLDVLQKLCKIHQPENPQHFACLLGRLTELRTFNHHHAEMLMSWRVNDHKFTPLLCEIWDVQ
T1 sequence (P19793 1-462 partner): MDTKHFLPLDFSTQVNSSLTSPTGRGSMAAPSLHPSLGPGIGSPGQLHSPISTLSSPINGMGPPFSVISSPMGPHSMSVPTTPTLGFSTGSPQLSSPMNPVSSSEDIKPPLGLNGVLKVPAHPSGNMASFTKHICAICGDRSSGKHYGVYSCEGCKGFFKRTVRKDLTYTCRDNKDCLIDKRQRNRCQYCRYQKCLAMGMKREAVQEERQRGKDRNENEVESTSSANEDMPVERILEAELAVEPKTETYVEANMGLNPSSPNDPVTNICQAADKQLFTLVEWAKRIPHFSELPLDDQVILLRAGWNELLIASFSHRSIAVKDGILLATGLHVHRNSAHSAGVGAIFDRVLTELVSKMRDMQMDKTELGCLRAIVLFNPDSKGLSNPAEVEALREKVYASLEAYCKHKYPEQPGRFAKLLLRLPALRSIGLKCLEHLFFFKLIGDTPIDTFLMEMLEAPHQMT
Description: full-length FXR reporter gene (transactivation) assay in HeLa cells. Format: cell-based. The following applies: for Emax: HeLa, read-out: FXR activation max. rel. activation (converted); for EC50: full-length FXR reporter gene assay, HeLa cells, read-out: FXR activation EC50; for FXR % activation at indicated conc.: 50 μM, relative to GW4064 (1c) at 3 μM = 100%. The text has this:
(§1) This assay is based on a reporter construct containing a firefly luciferase under the control of the FXR response element from bile salt export protein (BSEP). FXR and its hetero dimer partner retinoid X receptor (RXR) as expression constructs under the control of a CMV promoter as well as a constitutively expressed renilla luciferase (SV40 promoter) for normalization and toxicity control were co-transfected. […] The sEH inhibitory potency of the test compounds was quantified in a fluorescence-based assay using recombinant enzyme and the fluorogenic sEH substrate PHOME^37 that is hydrolyzed to a fluorescent 6-methoxynaphtaldehyde by sEH.
Plasmids: pcDNA3-hFXR contains the sequence of human FXR and was already published elsewhere.^47 pGL3 basic (Promega Corporation, Fitchburg, Wis., USA) was used as a reporter plasmid, with a shortened construct of the promotor of the bile salt export protein (BSEP) cloned into the SacI/NheI cleavage site in front of the luciferase gene.^48 pRL-V40 (Promega) was transfected as a control for normalization of transfection efficiency and cell growth. pSG5-hRXR was already published elsewhere as well.^49
Assay procedure: HeLa cells were grown in DMEM high glucose supplemented with 10% FCS, sodium pyruvate (1 mM), penicillin (100 U/mL) and streptomycin (100 μg/mL) at 37° C. and 5% CO2. […] Transient transfection of HeLa cells with BSEP-pGL3, pRL-SV40 and the expression plasmids pcDNA3-hFXR and pSG5-hRXR was carried out using calcium phosphate transfection method. […] Each concentration was tested in triplicate wells and each experiment was repeated independently at least three times. […] Luminescence was measured with a Tecan Infinite M200 luminometer (Tecan Deutschland GmbH, Crailsheim, Germany). Normalization of transfection efficiency and cell growth was done by division of firefly luciferase data by renilla luciferase data multiplied by 1000 resulting in relative light units (RLU). Fold activation was obtained by dividing the mean RLU of the tested compound at a respective concentration by the mean RLU of untreated control. […] EC50 and standard error of the mean values were calculated with the mean relative activation values of at least three independent experiments by SigmaPlot 10.0 (Systat Software GmbH, Erkrath, Germany) using a four parameter logistic regression.
A general note: In a reporter assay the amount or activity of a reporter protein is the signal.

The target in a further test is T2, recombinant human sEH (Homo sapiens, UniProt P34913).
T2 sequence (P34913 1-555): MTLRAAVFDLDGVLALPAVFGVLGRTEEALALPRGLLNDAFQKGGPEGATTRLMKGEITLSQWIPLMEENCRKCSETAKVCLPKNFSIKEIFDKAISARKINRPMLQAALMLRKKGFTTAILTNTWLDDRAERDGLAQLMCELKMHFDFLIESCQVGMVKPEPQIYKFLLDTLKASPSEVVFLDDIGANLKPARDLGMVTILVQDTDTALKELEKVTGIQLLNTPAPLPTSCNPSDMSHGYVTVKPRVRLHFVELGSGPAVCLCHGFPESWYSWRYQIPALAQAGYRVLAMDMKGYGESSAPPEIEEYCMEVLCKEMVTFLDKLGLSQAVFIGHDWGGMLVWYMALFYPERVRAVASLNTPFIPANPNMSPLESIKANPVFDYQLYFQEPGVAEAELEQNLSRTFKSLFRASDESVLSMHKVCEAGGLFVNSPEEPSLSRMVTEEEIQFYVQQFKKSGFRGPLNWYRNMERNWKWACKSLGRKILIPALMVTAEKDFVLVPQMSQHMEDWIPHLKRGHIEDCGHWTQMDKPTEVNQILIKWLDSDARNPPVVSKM
Description: fluorescence-based sEH activity assay with PHOME substrate. The following applies: for IC50: recombinant human sEH, PHOME, read-out: sEH inhibition IC50. Format: biochemical.
Description: as §1
The sEH inhibitory potency of the compounds were determined in a fluorescence-based 96-well sEH activity assay using recombinant human enzyme^50,51. Non-fluorescent PHOME (3-phenylcyano-(6-methoxy-2-naphthalenyl)methyl ester 2-oxiraneacetic acid; Cayman Chemicals) which can be hydrolyzed by the sEH to fluorescent 6-methoxynaphthaldehyde served as substrate. Recombinant human sEH (in Bis-Tris buffer, pH 7, with 0.1 mg/mL BSA containing a final concentration of 0.01% Triton-X 100) was pre-incubated with test compounds (in DMSO, final DMSO concentration: 1%) for 30 min at room temperature. […] A blank control (no protein and no compound) as well as a positive control (no compound) were executed. All experiments were conducted in triplicate and repeated in at least three independent experiments. For IC50 calculation, dose-response curves of increasing compound concentrations were recorded.

As for `CC(C)Oc1ccc(CNC(=O)c2ccc(C(C)(C)C)cc2)cc1` [compound 49], the Emax on human FXR was 26%.
Consider `COc1cc(C(=O)NCc2ccc(C(=O)O)cc2)ccc1C(C)(C)C` [compound 20], for which, at human FXR, the Emax was 23%.
For `CC(C)(C)c1ccc(C(=O)NCc2ccc(NS(C)(=O)=O)cc2Cl)cc1O` [compound 78, 4-(tert-Butyl-3-hydroxy)-N-(2-chloro-4-(methylsulfonamido)benzyl)benzamide], the IC50 (usually the point on the concentration scale where inhibition reaches its midpoint) at recombinant human sEH was determined as 16 ± 0.6 nM. In addition, on human FXR, the Emax was 24% and the EC50 – broadly, the midpoint of the concentration-response curve – is 3 ± 0.001 nM.
For `CN(C)c1ccc(C(=O)NCc2ccc(NS(C)(=O)=O)cc2Cl)cc1` [compound 83, 4-(Dimethylamino)-N-(2-chloro-4-(methylsulfonamido)benzyl)benzamide] the same measures were 45 ± 2 nM, 23% and 1460 ± 23 nM.
As for `CCOc1ccc(CNC(=O)c2ccc(C(C)(C)C)cc2)cc1` [compound 48], the Emax at human FXR is 31%.
Still for that read-out and setting: to `C[S+]([O-])c1ccc(CNC(=O)c2ccc(C(C)(C)C)cc2)cc1` (stereo not shown) [compound 52] belongs 24%; to `CC(C)(C)c1ccc(C(=O)NCc2ccc(OC(F)(F)F)cc2)cc1` [compound 50], 26%.
Still for that read-out and setting: the value for `CC(C)(C)c1ccc(C(=O)NCc2ccc(NS(C)(=O)=O)cc2)cc1` [compound 46] was 22%.
`CC(C)(C)c1ccc(C(=O)NCc2ccc(N)cc2Cl)cc1` [69a, N-(4-Amino-2-chlorobenzyl)-4-(tert-butyl)benzamide]: the half-inhibitory concentration (IC50) on recombinant human sEH was 40 ± 6 nM. In addition, on human FXR, the Emax is 29%; the EC50 is 46 nM and 45 nM.
Consider `CC(C)(C)c1ccc(C(=O)NCc2ccc(NC(=O)C(F)(F)F)cc2)cc1` [compound 41], for which, at human FXR, the Emax is 20%.
Turning to `CC(C)(C)c1ccc(C(=O)NCc2ccc(C(=O)O)cc2)cc1` [compound 18], the Emax on human FXR is 13%.
For the compound `Cc1ccc(C(=O)NCc2ccc(C(=O)O)cc2)cc1C` [compound 10], on recombinant human sEH (50 μM, read-out: sEH % inhibition at indicated conc.), the inhibition – broadly, the share of the control response that was lost under treatment – at 50 µM turned out to be 52 ± 1%. Further, on human FXR, the Emax was 12%.
As to `CN(C)C(=O)c1ccc(CNC(=O)c2ccc(C(C)(C)C)cc2)cc1` [compound 39], at human FXR, the Emax was 17 ± 100%.
On the same count and under the same terms, to `CC(=O)Nc1ccc(CNC(=O)c2ccc(C(C)(C)C)cc2)cc1` [compound 40] belongs 31%; to `CC(C)(C)c1ccc(C(=O)NCc2ccc(C(=O)O)cc2Cl)cc1` [compound 31], 25%; to `CC(C)(C)c1ccc(C(=O)NCc2ccc(-c3nnn[nH]3)cc2)cc1` [compound 43], 23%.
The same measure, in the same setting: to `O=C(O)c1ccc(CNC(=O)c2ccc(-c3ccccc3)cc2)cc1` [compound 13] belongs 24%; to `CC(C)(C)c1ccc(NC(=O)Nc2ccc(C(=O)O)cc2)cc1` [compound 21], 14%.
In the case of `CC(C)(C)c1ccc(C(=O)NCc2ccc(C#N)cc2)cc1` [compound 36], on human FXR, the “FXR % activation at indicated conc.” value is “inactive (50 μM)”.
In the case of `CC(C)(C)c1ccc(C(=O)NCc2ccc(SC(F)(F)F)cc2)cc1` [compound 54], the Emax at human FXR is 19%.
For the compound `CC(=O)NS(=O)(=O)c1ccc(CNC(=O)c2ccc(C(C)(C)C)cc2)cc1` [compound 45], the “FXR % activation at indicated conc.” value on human FXR is “inactive (50 μM)”.
Regarding `O=C(O)c1ccc(CNC(=O)c2cccc(-c3ccccc3)c2)cc1` [compound 12], the Emax on human FXR was 14%.
Consider `CC(C)(C)c1ccc(C(=O)NCc2ccc(N)cc2)cc1` [compound 42], for which the “FXR % activation at indicated conc.” value at human FXR was “inactive (50 μM)”.
Take `CC(C)(C)c1ccc(C(=O)NCc2ccc(C=O)cc2)cc1` [compound 34]: the Emax on human FXR is 22%.
Take `CC(C)(C)c1ccc(C(=O)NCc2ccc(C(=O)O)c(F)c2)cc1` [compound 27]: the Emax at human FXR is 28%.
Still for that read-out and setting: the value for `COc1ccc(CNC(=O)c2ccc(C(C)(C)C)cc2)cc1` [compound 47] was 19%; that for `CC(C)(C)c1ccc(C(=O)NCc2ccc(S(C)(=O)=O)cc2)cc1` [compound 53] was 34%; that for `CC(C)(C)c1ccc(C(=O)NCc2ccc(S(N)(=O)=O)cc2)cc1` [compound 44] was 16%.
Take `CC(C)(C)c1ccc(C(=O)NCc2ccc(C(=O)O)cc2F)cc1` [compound 30]: the Emax on human FXR was 26%.
For `O=C(O)c1ccc(CNC(=O)c2ccc(Cl)c(Cl)c2)cc1` [compound 14], on human FXR, the “FXR % activation at indicated conc.” value is “inactive (50 μM)”.
As for `CC(C)(C)c1ccc(C(=O)NCc2ccc(CC(=O)O)cc2)cc1` [compound 23], at human FXR, the Emax was 19%.
Regarding `CC(C)(C)c1ccc(C(=O)NCc2ccc(OCC(=O)O)cc2)cc1` [compound 25], at human FXR, the Emax is 21%.
On the same count and under the same terms, the value for `CC(C)(C)c1ccc(C(=O)NCc2ccc(CCC(=O)O)cc2)cc1` [compound 24] was 16%.
On the same count and under the same terms, the value for `CC(C)(C)c1ccc(C(=O)NCc2ccc(C(N)=O)cc2)cc1` [compound 37] was 27%.
On to `CC(=O)c1ccc(CNC(=O)c2ccc(C(C)(C)C)cc2)cc1` [compound 35], for which, on human FXR, the Emax was 29%.
For `Cc1cc(C(=O)O)ccc1CNC(=O)c1ccc(C(C)(C)C)cc1` [compound 29], on human FXR, the “FXR % activation at indicated conc.” value is “inactive (50 μM)”.
`CNC(=O)c1ccc(CNC(=O)c2ccc(C(C)(C)C)cc2)cc1` [compound 38]: the Emax at human FXR is 29%.
Still for that read-out and setting: the value for `CC(C)(C)c1ccc(C(=O)NCc2ccc(S(N)(=O)=O)cc2F)cc1` [compound 55] was 34%.
With `CC(C)(C)c1ccc(C(=O)NCc2ccc(CO)cc2)cc1` [compound 33], the “FXR % activation at indicated conc.” value on human FXR was “inactive (50 μM)”.
